Measurements: patent US7208517B1, “Endothelin antagonists” (Abbott Labortories, priority 1994, dated 2007)

Target: T1, ETA Receptor (Rattus norvegicus, UniProt P26684)
T1 construct: endogenous in cells; host or cells: MMQ rat pituitary cells (membranes)
T1 sequence (P26684 21-426): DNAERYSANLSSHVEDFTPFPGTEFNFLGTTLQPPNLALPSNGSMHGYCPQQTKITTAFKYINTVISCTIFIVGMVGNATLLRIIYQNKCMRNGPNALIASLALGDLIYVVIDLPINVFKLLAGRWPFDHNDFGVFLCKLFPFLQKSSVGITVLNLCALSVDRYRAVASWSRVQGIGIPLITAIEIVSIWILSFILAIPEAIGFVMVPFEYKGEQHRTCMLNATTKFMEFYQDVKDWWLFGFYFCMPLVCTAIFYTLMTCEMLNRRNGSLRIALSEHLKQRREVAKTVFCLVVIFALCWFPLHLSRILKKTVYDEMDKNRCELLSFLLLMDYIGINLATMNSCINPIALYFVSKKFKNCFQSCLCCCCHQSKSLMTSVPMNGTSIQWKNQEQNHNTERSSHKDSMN
Test: [125I]ET-1 binding to membranes from MMQ cells (ETA receptor binding assay, Table 4)
Conditions: test compound at 1 μM, 0.1 nM [125I]ET-1, MMQ cell membranes, 4 hours at 25° C.; for inhibition at 1 µM: read-out: % Inhibition of ETA at 1 μM
Description: Preparation of Membranes from MMQ Cells:
MMQ [MacLeod/MacQueen/Login cell line (prolactin secreting rat pituitary cells)] cells from 150 mL culture flasks were collected by centrifugation (1000×g for 10 min) and then homogenized in 25 mL of 10 mM Hepes (pH 7.4) containing 0.25 M sucrose and protease inhibitors [3 mM EDTA, 0.1 mM PMSF, and 5 μg/mL Pepstatin A] by a micro ultrasonic cell disrupter (Kontes). The mixture was centrifuged at 1000×g for 10 min. The supernatant was collected and centrifuged at 60,000×g for 60 min. The precipitate was resuspended in 20 mM Tris, pH 7.4 containing the above protease inhibitors and centrifuged again. The final pellet was resuspended in 20 mM Tris, pH 7.4 containing protease inhibitors and stored at −80° C. until used. Protein content was determined by the Bio-Rad dye-binding protein assay.
Binding assays were performed in 96-well microtiter plates pretreated with 0.1% BSA. […] After incubation, unbound ligands were separated from bound ligands by a vacuum filtration method using glass-fiber filter strips in PHD cell harvesters (Cambridge Technology, Inc., MA), followed by washing the filter strips with saline (1 mL) for three times. Nonspecific binding was determined in the presence of 1 μM ET-1.

inhibition at 1 µM [%] | % Inhibition of ETA at 1 μM [%] | Structure (SMILES)
95.3 | – | CCC[C@H](C(=O)N(CCC)CCC)N1C[C@@H](c2ccc3c(c2)OCO3)[C@@H](C(=O)O)[C@@H]1c1ccc(OC)cc1 [Example 75C, (2R,3R,4R)-2-(4-Methoxyphenyl)-4-(1,3-benzodioxol-5-yl)-1-((1R)-1-(N,N-dipropylaminocarbonyl)-1-butyl)pyrrolidine-3-carboxylic acid]
93.1 | – | CCC[C@H](C(=O)N(CCC)CCC)N1C[C@H](c2ccc3c(c2)OCO3)[C@H](C(=O)O)[C@H]1c1ccc(OC)cc1 [Example 76, (2S,3S,4S)-2-(4-Methoxyphenyl)-4-(1,3-benzodioxol-5-yl)-1-((1R)-1-(N,N-dipropylaminocarbonyl)-1-butyl)pyrrolidine-3-carboxylic acid]
– | 107.4 | CCCCCC1C(C(=O)O)C(c2ccc3c(c2)OCO3)CN1CC(=O)N(CCCC)CCCC (stereo not drawn) [Example 92C, trans,trans-2-(Pentyl)-4-(1,3-benzodioxol-5-yl)-1-(N,N-di(n-butyl)aminocarbonylmethyl)pyrrolidine-3-carboxylic acid]
– | 59.2 | CCCCCC1C(C(=O)O)C(c2ccc3c(c2)OCO3)CN1CCN(CCC)S(=O)(=O)CCC (stereo not drawn) [Example 93C, trans,trans-2-(Pentyl)-4-(1,3-benzodioxol-5-yl)-1-[2-(N-propyl-N-propylsulfonylamino)ethyl]pyrrolidine-3-carboxylic acid]
– | 89.7 | CCCN(CCN1CC(c2ccc3c(c2)OCO3)C(C(=O)O)C1c1ccc(OC)cc1)S(=O)(=O)c1ccc(C)cc1C (stereo not drawn) [Example 123, trans,trans-1-(2-(N-Propyl-N-(2,4-dimethylbenzenesulfonyl)amino)ethyl)-2-(4-methoxyphenyl)-4-(1,3-benzodioxol-5-yl)pyrrolidine-3-carboxylic acid]
– | 91.0 | CCCN(CCN1CC(c2ccc3c(c2)OCO3)C(C(=O)O)C1c1ccc(OC)cc1)S(=O)(=O)CCCCl (stereo not drawn) [Example 124, trans,trans-1-(2-(N-Propyl-N-(3-chloropropylsulfonyl)amino)ethyl)-2-(4-methoxyphenyl)-4-(1,3-benzodioxol-5-yl)pyrrolidine-3-carboxylic acid]
– | 97.2 | CCCN(CCN1CC(c2ccc3c(c2)OCO3)C(C(=O)O)C1c1ccc(OC)cc1)S(=O)(=O)CCOC (stereo not drawn) [Example 125, trans,trans-1-(2-(N-Propyl-N-(2-methoxyethylsulfonyl)amino)ethyl)-2-(4-methoxyphenyl)-4-(1,3-benzodioxol-5-yl)pyrrolidine-3-carboxylic acid]
– | 91.7 | CCCN(CCN1CC(c2ccc3c(c2)OCO3)C(C(=O)O)C1c1ccc(OC)cc1)S(=O)(=O)CCOCC (stereo not drawn) [Example 126, trans,trans-1-(2-(N-Propyl-N-(2-ethoxyethylsulfonyl)amino)ethyl)-2-(4-methoxyphenyl)-4-(1,3-benzodioxol-5-yl)pyrrolidine-3-carboxylic acid]
– | 91.4 | CCCN(CCN1CC(c2ccc3c(c2)OCO3)C(C(=O)O)C1c1ccc(OC)cc1)S(=O)(=O)c1cccc2c(N(C)C)cccc12 (stereo not drawn) [Example 127, trans,trans-1-(2-(N-Propyl-N-(5-dimethylamino-1-naphthylsulfonyl)amino)ethyl)-2-(4-methoxyphenyl)-4-(1,3-benzodioxol-5-yl)pyrrolidine-3-carboxylic acid]
– | 95.4 | CCCN(CCN1CC(c2ccc3c(c2)OCO3)C(C(=O)O)C1c1ccc(OC)cc1)S(=O)(=O)CC (stereo not drawn) [Example 128, trans,trans-1-(2-(N-Propyl-N-(ethylsulfonyl)amino)ethyl)-2-(4-methoxyphenyl)-4-(1,3-benzodioxol-5-yl)pyrrolidine-3-carboxylic acid]
– | 100.1 | CCCN(CCN1CC(c2ccc3c(c2)OCO3)C(C(=O)O)C1c1ccc(OC)cc1)S(=O)(=O)c1ccc(C)cc1 (stereo not drawn) [Example 129, trans,trans-1-(2-(N-Propyl-N-(4-methylbenzenesulfonyl)amino)ethyl)-2-(4-methoxyphenyl)-4-(1,3-benzodioxol-5-yl)pyrrolidine-3-carboxylic acid]
– | 91.0 | CCCCN(CCCC)C(=O)CN1CC(c2ccc3c(c2)OCO3)C(C(=O)O)C1c1cccnc1 (stereo not drawn) [Example 130, trans,trans-1-(N,N-Di(n-butyl)aminocarbonylmethyl)-2-(3-pyridyl)-4-(1,3-benzodioxol-5-yl)pyrrolidine-3-carboxylic acid]
– | 89.5 | CCCCS(=O)(=O)N(CCC)CCN1CC(c2ccc3c(c2)OCO3)C(C(=O)O)C1c1ccc(OC)cc1 (stereo not drawn) [Example 131, trans,trans-1-(2-(N-Propyl-N-(n-butylsulfonyl)amino)ethyl)-2-(4-methoxyphenyl)-4-(1,3-benzodioxol-5-yl)pyrrolidine-3-carboxylic acid]
– | 90.0 | CCCN(CCN1CC(c2ccc3c(c2)OCO3)C(C(=O)O)C1c1ccc(OC)cc1)S(=O)(=O)c1ccc(Cl)cc1 (stereo not drawn) [Example 132, trans,trans-1-(2-(N-Propyl-N-(4-chlorobenzenesulfonyl)amino)ethyl)-2-(4-methoxyphenyl)-4-(1,3-benzodioxol-5-yl)pyrrolidine-3-carboxylic acid]
– | 88.6 | CCCN(CCN1CC(c2ccc3c(c2)OCO3)C(C(=O)O)C1c1ccc(OC)cc1)S(=O)(=O)Cc1ccccc1 (stereo not drawn) [Example 133, trans,trans-1-(2-(N-Propyl-N-(benzylsulfonyl)amino)ethyl)-2-(4-methoxyphenyl)-4-(1,3-benzodioxol-5-yl)pyrrolidine-3-carboxylic acid]
– | 92.2 | CCCN(CCN1CC(c2ccc3c(c2)OCO3)C(C(=O)O)C1c1ccc(OC)cc1)S(=O)(=O)c1ccc(F)cc1 (stereo not drawn) [Example 134, trans,trans-1-(2-(N-Propyl-N-(4-fluorobenzenesulfonyl)amino)ethyl)-2-(4-methoxyphenyl)-4-(1,3-benzodioxol-5-yl)pyrrolidine-3-carboxylic acid]
– | 77.7 | CCCN(C)C(=O)CN1CC(c2cccc3occc23)C(C(=O)O)C1c1ccc(OC)cc1 (stereo not drawn) [Example 135B, trans,trans-1-(N-Methyl-N-propylaminocarbonylmethyl)-2-(4-methoxyphenyl)-4-(4-benzofuranyl)pyrrolidine-3-carboxylic acid]
– | 79.4 | CCCN(C)C(=O)CN1CC(c2ccc3ccoc3c2)C(C(=O)O)C1c1ccc(OC)cc1 (stereo not drawn) [Example 136, trans,trans-1-(N-Methyl-N-propylaminocarbonylmethyl)-2-(4-methoxyphenyl)-4-(6-benzofuranyl)pyrrolidine-3-carboxylic acid]
– | 83.0 | CCCCN(CCCC)C(=O)CN1CC(c2cccc3occc23)C(C(=O)O)C1c1ccc(OC)cc1 (stereo not drawn) [Example 138, trans,trans-1-(N,N-Di(n-butyl)aminocarbonylmethyl)-2-(4-methoxyphenyl)-4-(4-benzofuranyl)pyrrolidine-3-carboxylic acid]
– | 98.6 | CCCCN(CCCC)C(=O)CN1CC(c2cccc3occc23)C(C(=O)O)C1c1ccc(OC)cc1 (stereo not drawn) [Example 139, trans,trans-1-(N,N-Di(n-butyl)aminocarbonylmethyl)-2-(4-methoxyphenyl)-4-(4-benzofuranyl)pyrrolidine-3-carboxylic acid]
– | 106.3 | CCCCN(CCCC)C(=O)CN1CC(c2ccc3ccoc3c2)C(C(=O)O)C1c1ccc(OC)cc1 (stereo not drawn) [Example 140, trans,trans-1-(N,N-Di(n-butyl)aminocarbonylmethyl)-2-(4-methoxyphenyl)-4-(6-benzofuranyl)pyrrolidine-3-carboxylic acid]
– | 92.8 | CCCCN(CCCC)C(=O)CN1CC(c2ccc3c(c2)OCC3)C(C(=O)O)C1c1ccc(OC)cc1 (stereo not drawn) [Example 141, trans,trans-1-(N,N-Di(n-butyl)aminocarbonylmethyl)-2-(4-methoxyphenyl)-4-(6-benzo-2,3-dihydrofuranyl)pyrrolidine-3-carboxylic acid]
– | 78.7 | CCCN(C)C(=O)CN1CC(c2ccc3c(c2)CCC3)C(C(=O)O)C1c1ccc(OC)cc1 (stereo not drawn) [Example 142B, trans,trans-1-(N-Methyl-N-propylaminocarbonylmethyl)-2-(4-methoxyphenyl)-4-(5-indanyl)pyrrolidine-3-carboxylic acid]
– | 20.6 | CCCN(C)C(=O)CN1CC(c2ccc3cc[nH]c3c2)C(C(=O)O)C1c1ccc(OC)cc1 (stereo not drawn) [Example 143, trans,trans-1-(N-Methyl-N-propylaminocarbonylmethyl)-2-(4-methoxyphenyl)-4-(6-indolyl)pyrrolidine-3-carboxylic acid]
